Series [1] relates to FGF2-induced vessels sprouting, murine aortic rings. As to the kind of experiment: Aortic rings assay (FGF2-induced vessels sprouting, 3D Matrigel). Also noted: species or system C57BL/6 mice. As to conditions: FGF2 30 ng/ml, small molecules 100 μM. As for the experimental part: Figure 4 Biological activity of the selected hits. (A) Endothelial cell proliferation. BAEC were exposed to FGF2 (5 ng/ml) with increasing concentrations of molecules (3–80 μM). After 72 h, cells were stained and proliferation measured as absorbance. Data are the percentage of control proliferation (in absence of molecules), mean of value from 2 experiments performed in triplicate. (B–D) Aortic ring assay. Sections of murine aortas were embedded in Matrigel, in the presence of FGF2 (30 ng/ml) and the indicated small molecule. The formation of capillary structures sprouting from the rings was analyzed after 7 and 11 days as described in Methods, and the angiogenic response expressed as area covered by the sprouting structures (arbitrary units, mean and SE, n ≥ 6). (B) Antiangiogenic activity of the small molecules (100 μM). (C) Examples of time-dependent and dose-dependent effect of two compounds (SM.2–20 and SM.2–23), tested at 100 (diamond), 50 (circle) and 25 μM (triangle) compared to control (black squares). (D) Representative pictures of sprouting from control and SM.2–23 treated aortic sections. Original magnification, 20x. (E,F) Chorioallantoic membrane assay. FGF2 (200 ng) was administered in the absence or presence of the indicated compound (0.5 μg) on day 8 (n = 10). (E) Angiogenic response is evaluated 4 days later, and expressed as number of vessels entering the sponge (mean and SD). (F) Representative pictures are shown. Original magnification, 50x.
Thoracic aortas were removed from mice, cleaned of perivascular adipose tissue and cut into 1 mm segments. Matrigel (75 μl, BD Biosciences) was added to 96 well plates, and allowed to gellify at 37 °C for 30 min. Aortic sections were added to the wells, and covered with a second layer of Matrigel and DMEM 5% FCS containing FGF2 (30 ng/ml) and the indicated concentration of the compounds. The formation of capillary structures sprouting from the rings was analyzed after 4, 7 and 11 days with an inverted-phase contrast microscope (IX70; Olympus). Images were analyzed with ImageJ 1.48, and the angiogenic response expressed as area covered by the sprouting structures (arbitrary units), substracted the area of the aortic section.

The target in series [2] is T1, FGF2 (Homo sapiens, UniProt P09038).
T1 construct: purchased R&D Systems, obtained through the NCI-Biological Resources Branch
T1 sequence (P09038 134-288 limits assumed): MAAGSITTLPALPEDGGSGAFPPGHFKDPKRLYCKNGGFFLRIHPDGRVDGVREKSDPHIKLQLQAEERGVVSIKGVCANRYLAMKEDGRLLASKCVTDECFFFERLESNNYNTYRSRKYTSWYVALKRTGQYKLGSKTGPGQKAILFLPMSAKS
Kind of series: Competition with biotinylated recombinant TSP-1 domain (E123CaG1) for binding to FGF2 (DELFIA). The settings on record: for IC50: mean ± SE of 3 experiments; for fold more active than the initial query SM27 (competition IC50): vs SM27.

Series [3] is described as follows: Dynamic Light Scattering (photon correlation spectroscopy) and Zeta potential analysis of aggregates in solution. It is filed as physicochemical. As to conditions: for Zeta potential: 1mg/ml solution, in mV (unit assumed). An excerpt:
Binding of 5 water-soluble compounds to FGF2 was further analyzed by surface plasmon resonance (SPR). All the compounds were able to bind FGF2 immobilized to a SPR sensorchip (Suppl. Figure S2). […] In the context of biophysical characterization of compounds, we also tested the formation of aggregates in solution by representative compounds SM.2-16, SM.2-20 and SM.2-23, using Dynamic Light Scattering, which allows measuring nanoparticle size and polydispersion index (by Photocorrelation Spectroscopy) and surface charge (Zeta potential). For all the molecules, at concentrations between 0.03 and 1 mg/ml, the hydrodynamic radius ranged from 2.1 to 2.9 nm, with polydispersity index values between 0.5 and 0.6 (Table 2): no significant variation in the hydrodynamic radius was observed upon decreasing the concentrations, typically indicative of a non-aggregated state. Zeta potential values were strongly negative (indicative of molecule dissociation), ranging from −48 to −52 (Table 2). These findings therefore indicate that the solutions are fairly monodispersed, containing mainly single, charged molecules.
The Photon correlation spectroscopy (PCS) and the Zeta Potential (Zp) values were measured using the Zetasizer Nano ZS (Malvern, Worcestshire, UK), as detailed in Supplementary Material. Data were analyzed by Zetasizer software, version 7.11 (Malvern, Worcestshire, UK).
Photon correlation spectroscopy and Zeta Potential analysis. Photon correlation spectroscopy (PCS) and the Zeta Potential (Zp) values were measured using the Zetasizer Nano ZS (Malvern, Worcestshire, UK) with a fixed 173° scattering angle and a 633 -nm-helium-neon-laser. Data were analyzed by Zetasizer software, version 7.11 (Malvern, Worcestshire, UK). The set up temperature […]
Samples were dissolved in 1 ml of deionized water with 1% HBSS (Hanks’ Balanced Salt solution) to obtain a concentration of about 3mg/ml. For PCS experiments the solution was further diluted with HBSS to the indicated concentration, transferred to a disposable folded capillary cell at room temperature and analyzed 10’ minutes post-diluting.
For Zp measurements, 1mg/ml solution of the compounds were used. Due to the high conductivity of buffer solution precluding electrophoretic mobility measurements, about 3mg of samples were solubilized in 1% HBSS and diluted with suitable volume of deionized water. The solution, was transferred to a disposable folded capillary cell (Malvern, Worcestshire, UK) at room temperature and analyzed 10’ post-diluting. […]

The target in series [4] is T1, FGF2. As to the kind of experiment: SPR direct binding to sensorchip-immobilized FGF2. As to conditions: single site model, one experiment representative of two, read-out: Kd (dissociation constant) of FGF2/compound interaction. As for the experimental part: SPR measurements were performed on a BIAcore X100 instrument (GE-Healthcare, WI). FGF2 was immobilized on a CM5 sensorchip (GE-Healthcare) as described, allowing the immobilization of 7,365 resonance units (RU) (410 fmol/mm^2 of FGF-2).
Suppl. Table S2. Determination of the affinity (Kd) of the FGF2/compound interactions by
Binding parameters were calculated by the non-linear curve fitting software package BIAevaluation
3.2 using a single site model with correction for mass transfer. Dissociation constant (Kd) values
were derived from the dissociation rate/association ratio. Only sensorgrams whose fitting gave
values of X2 lower than 10 were used {Khalifa, 2001 #213}.

Consider `CC(=O)Nc1ccc(/N=N/c2c(S(=O)(=O)O)cc3cc(NC(=O)Nc4ccc5c(O)c(/N=N/c6ccccc6)c(S(=O)(=O)O)cc5c4)ccc3c2O)cc1` [SM.2–19, 3-((E)-(4-acetamidophenyl)diazenyl)-4-hydroxy-7-(3-(5-hydroxy-6-((E)-phenyldiazenyl)-7-sulfonaphthalen-2-yl)ureido)naphthalene-2-sulfonic acid], for which the “inhibition of FGF2-induced vessels sprouting” value (“inhibition” below) in series [1] was “not”. Moreover, in series [2], the IC50 was found to be 350 ± 30 nM and the “fold more active than the initial query SM27 (competition IC50)” value is on record as 6–11 fold.

For the compound `Cc1ccc(/N=N/c2c(S(=O)(=O)O)cc3cc(NC(=O)Nc4ccc5c(O)c(/N=N/c6ccc7cc(S(=O)(=O)O)ccc7c6)c(S(=O)(=O)O)cc5c4)ccc3c2O)c(C)c1` [SM.2–23, 3-((E)-(2,4-dimethylphenyl)diazenyl)-4-hydroxy-7-(3-(5-hydroxy-7-sulfo-6-((E)-(6-sulfonaphthalen-2-yl)diazenyl)naphthalen-2-yl)ureido)naphthalene-2-sulfonic acid], the “inhibition” value in series [1] is on record as “significantly inhibited”. Besides, the “Hydrodynamic Radius” value turned out to be 2.370 nm in series [3] (0.0625 mg/ml); 2.765 nm in series [3] (0.125 mg/ml); 2.951 nm in series [3] (0.25 mg/ml); 2.597 nm in series [3] (0.5 mg/ml); 2.877 nm in series [3] (1 mg/ml). Besides, the “PdI (polydispersion index)” value is reported as 0.677 in series [3] (0.0625 mg/ml); 0.557 in series [3] (0.125 mg/ml); 0.59 in series [3] (0.25 mg/ml); 0.539 in series [3] (0.5 mg/ml); 0.545 in series [3] (1 mg/ml). This compound also gave a Zeta potential in series [3] of −52.2. Also, the Kd in series [4] is 93 nM. The concentration for half-maximal inhibition (IC50) in series [2] was found to be 530 ± 110 nM. Also, the “fold more active than the initial query SM27 (competition IC50)” value in series [2] is 6–11 fold.

Regarding `Cc1cccc(/N=N/c2c(S(=O)(=O)O)cc3cc(NC(=O)Nc4ccc5c(O)c(/N=N/c6ccc7cc(S(=O)(=O)O)ccc7c6)c(S(=O)(=O)O)cc5c4)ccc3c2O)c1` [SM.2–22, 4-hydroxy-7-(3-(5-hydroxy-7-sulfo-6-((E)-(6-sulfonaphthalen-2-yl)diazenyl)naphthalen-2-yl)ureido)-3-((E)-m-tolyldiazenyl)naphthalene-2-sulfonic acid], in series [1], the “inhibition” value is “significantly inhibited”. In series [4], the Kd was determined as 39 nM. For the same compound, in series [2], the IC50 came to 420 ± 90 nM and the “fold more active than the initial query SM27 (competition IC50)” value is recorded as 6–11 fold.

Regarding `O=C(Nc1ccc2cc(S(=O)(=O)O)cc(O)c2c1)Nc1ccc2cc(S(=O)(=O)O)cc(O)c2c1` [SM27, 6,6'-(carbonylbis(azanediyl))bis(4-hydroxynaphthalene-2-sulfonic acid), reference compound], in series [4], the Kd turned out to be 335 nM. The IC50 in series [2] was 3900 ± 230 nM.

Take `Cc1ccccc1/N=N/c1c(S(=O)(=O)O)cc2cc(NC(=O)Nc3ccc4c(O)c(/N=N/c5ccc6cc(S(=O)(=O)O)ccc6c5)c(S(=O)(=O)O)cc4c3)ccc2c1O` [SM.2–20, 4-hydroxy-7-(3-(5-hydroxy-7-sulfo-6-((E)-(6-sulfonaphthalen-2-yl)diazenyl)naphthalen-2-yl)ureido)-3-((E)-o-tolyldiazenyl)naphthalene-2-sulfonic acid]: in series [1], the “inhibition” value was “significantly inhibited”. Moreover, the “Hydrodynamic Radius” value is 2.186 nm in series [3] (0.03125 mg/ml); 2.159 nm in series [3] (0.0625 mg/ml); 2.172 nm in series [3] (0.125 mg/ml); 2.480 nm in series [3] (0.25 mg/ml); 2.571 nm in series [3] (0.5 mg/ml); 2.878 nm in series [3] (1 mg/ml). Besides, the “PdI (polydispersion index)” value in series [3] (0.03125 mg/ml) is 0.523; in series [3] (0.0625 mg/ml), 0.658; in series [3] (0.125 mg/ml) it was 0.635; in series [3] (0.25 mg/ml) it was 0.789; in series [3] (0.5 mg/ml), 0.518; in series [3] (1 mg/ml), 0.595. Moreover, the Zeta potential in series [3] was −50.2. The Kd in series [4] amounted to 318 nM. In series [2], the 50% inhibitory concentration (IC50) is 500 ± 110 nM. Besides, the “fold more active than the initial query SM27 (competition IC50)” value in series [2] is 6–11 fold.

Turning to `COc1ccccc1/N=N/c1c(S(=O)(=O)O)cc2cc(NC(=O)Nc3ccc4c(O)c(/N=N/c5ccc6cc(S(=O)(=O)O)ccc6c5N)c(S(=O)(=O)O)cc4c3)ccc2c1O` [SM.2–16, 3-((E)-(1-amino-6-sulfonaphthalen-2-yl)diazenyl)-4-hydroxy-7-(3-(5-hydroxy-6-((E)-(2-methoxyphenyl)diazenyl)-7-sulfonaphthalen-2-yl)ureido)naphthalene-2-sulfonic acid], the “inhibition” value in series [1] is given as “significantly inhibited”. The “Hydrodynamic Radius” value in series [3] (0.03125 mg/ml) is recorded as 2.140 nm; in series [3] (0.0625 mg/ml) it was 2.364 nm; in series [3] (0.125 mg/ml) it was 2.149 nm; in series [3] (0.25 mg/ml), 2.511 nm; in series [3] (0.5 mg/ml), 2.265 nm; in series [3] (1 mg/ml), 2.283 nm. For the same compound, the “PdI (polydispersion index)” value is recorded as 0.495 in series [3] (0.03125 mg/ml); 0.742 in series [3] (0.0625 mg/ml); 0.452 in series [3] (0.125 mg/ml); 0.663 in series [3] (0.25 mg/ml); 0.533 in series [3] (0.5 mg/ml); 0.695 in series [3] (1 mg/ml). Moreover, in series [3], the Zeta potential is given as −48.0. Further, in series [4], the Kd was 125 nM. The IC50 in series [2] was determined as 590 ± 90 nM. In series [2], the “fold more active than the initial query SM27 (competition IC50)” value is 6–11 fold.
